Key:
[1] = system: PQQ-dependent membrane-bound glycerol dehydrogenase from Gluconobacter industrius IFO 3260; assay: Km determination of comparison glycerol dehydrogenase (membrane-bound); assay type: biochemical; details: enzyme preparation of Comparison 1, solubilized with dimethyldodecylamine oxide
Procedure: (§1) Hereunder is explained a method for the determination of the activity of the novel glycerol dehydrogenase according to the present invention. To the reaction solution are added 0.7 ml of a 50 mM Tris--HCl buffer solution, 0.1 ml of a 0.1 M glycerol and the enzyme solution to a total volume of 0.9 ml. The mixture was preheated at 25° C. for 5 minutes, and 0.1 ml of a 0.1 M potassium ferricyanide was added thereto for the initiation of the reaction. The reaction is terminated by addition of 0.5 ml of ferric sulfate/Dupanol reagent thereto, after which 3.5 ml of distilled water is added thereto to a total volume of 5 ml. Then the mixture was allowed to stand at 25° C. for 30 minutes, followed by measurement of absorbance at 660 nm. A blank test is carried out in the same manner as the above-mentioned one, but adding distilled water instead of the enzyme solution. The activity of glycerol dehydrogenase is expressed with one unit (U) being defined as the enzyme activity which oxidizes 1 μmole of glycerol in 1 minute under the conditions specified above.
Gluconobacter industrious IFO3260 was cultivated in the same manner as in Example 1. The culture solution was centrifuged to harvest the cells which were then subjected to a conventional manner to yield a membrane fraction. […]

[2] = system: PQQ-dependent soluble glycerol dehydrogenase from Pseudomonas sp. TE3493 (FERM BP-4169); assay: Km determination of purified glycerol dehydrogenase (ferricyanide activity assay); assay type: biochemical; details: purified enzyme of Example 1
Procedure: as §1
In a 500 ml Sakaguchi flask there were placed 100 ml of a culture medium which contained 0.5% glycerol, 0.2% NaNO3, 0.2% (NH4)2 SO4, 1% K2 HPO4, 1% KH2 PO4, 0.02% MgSO4.7H2 O and 0.05% yeast extracts, followed by autoclaving at 121° C. for 15 minutes. One loopful of cells of Pseudomonas sp. […]

`OCC(O)CO` [glycerol] was tested, and the Km [1] was 34 mM and the Km [2] was 2.45 mM.

— patent US5614374A, “Glycerol dehydrogenase, process for its production and its use” (Toyo Boseki Kabushiki Kaisha, priority 1992, dated 1997)
